What follows are compounds tested against recombinant human Nav1.7 (Homo sapiens (Human), UniProt Q15858) (assay: FRET-based membrane potential assay, recombinant human sodium channel Nav1.7). Settings: FRET-Membrane Potential Nav1.7 IC50.
Type: cell-based
Procedure, shortened: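 Channel activation used veratridine at its EC80, set by a dilution curve each experiment, together with Leiurus scorpion venom, added 3 min after compound. Membrane-potential ratio signals from FLIPR Tetra in HEPES-buffered HBSS were fitted to a four-parameter Hill equation for percent inhibition and IC50.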

recombinant human Nav1.7, sequence (Q15858 whole entry): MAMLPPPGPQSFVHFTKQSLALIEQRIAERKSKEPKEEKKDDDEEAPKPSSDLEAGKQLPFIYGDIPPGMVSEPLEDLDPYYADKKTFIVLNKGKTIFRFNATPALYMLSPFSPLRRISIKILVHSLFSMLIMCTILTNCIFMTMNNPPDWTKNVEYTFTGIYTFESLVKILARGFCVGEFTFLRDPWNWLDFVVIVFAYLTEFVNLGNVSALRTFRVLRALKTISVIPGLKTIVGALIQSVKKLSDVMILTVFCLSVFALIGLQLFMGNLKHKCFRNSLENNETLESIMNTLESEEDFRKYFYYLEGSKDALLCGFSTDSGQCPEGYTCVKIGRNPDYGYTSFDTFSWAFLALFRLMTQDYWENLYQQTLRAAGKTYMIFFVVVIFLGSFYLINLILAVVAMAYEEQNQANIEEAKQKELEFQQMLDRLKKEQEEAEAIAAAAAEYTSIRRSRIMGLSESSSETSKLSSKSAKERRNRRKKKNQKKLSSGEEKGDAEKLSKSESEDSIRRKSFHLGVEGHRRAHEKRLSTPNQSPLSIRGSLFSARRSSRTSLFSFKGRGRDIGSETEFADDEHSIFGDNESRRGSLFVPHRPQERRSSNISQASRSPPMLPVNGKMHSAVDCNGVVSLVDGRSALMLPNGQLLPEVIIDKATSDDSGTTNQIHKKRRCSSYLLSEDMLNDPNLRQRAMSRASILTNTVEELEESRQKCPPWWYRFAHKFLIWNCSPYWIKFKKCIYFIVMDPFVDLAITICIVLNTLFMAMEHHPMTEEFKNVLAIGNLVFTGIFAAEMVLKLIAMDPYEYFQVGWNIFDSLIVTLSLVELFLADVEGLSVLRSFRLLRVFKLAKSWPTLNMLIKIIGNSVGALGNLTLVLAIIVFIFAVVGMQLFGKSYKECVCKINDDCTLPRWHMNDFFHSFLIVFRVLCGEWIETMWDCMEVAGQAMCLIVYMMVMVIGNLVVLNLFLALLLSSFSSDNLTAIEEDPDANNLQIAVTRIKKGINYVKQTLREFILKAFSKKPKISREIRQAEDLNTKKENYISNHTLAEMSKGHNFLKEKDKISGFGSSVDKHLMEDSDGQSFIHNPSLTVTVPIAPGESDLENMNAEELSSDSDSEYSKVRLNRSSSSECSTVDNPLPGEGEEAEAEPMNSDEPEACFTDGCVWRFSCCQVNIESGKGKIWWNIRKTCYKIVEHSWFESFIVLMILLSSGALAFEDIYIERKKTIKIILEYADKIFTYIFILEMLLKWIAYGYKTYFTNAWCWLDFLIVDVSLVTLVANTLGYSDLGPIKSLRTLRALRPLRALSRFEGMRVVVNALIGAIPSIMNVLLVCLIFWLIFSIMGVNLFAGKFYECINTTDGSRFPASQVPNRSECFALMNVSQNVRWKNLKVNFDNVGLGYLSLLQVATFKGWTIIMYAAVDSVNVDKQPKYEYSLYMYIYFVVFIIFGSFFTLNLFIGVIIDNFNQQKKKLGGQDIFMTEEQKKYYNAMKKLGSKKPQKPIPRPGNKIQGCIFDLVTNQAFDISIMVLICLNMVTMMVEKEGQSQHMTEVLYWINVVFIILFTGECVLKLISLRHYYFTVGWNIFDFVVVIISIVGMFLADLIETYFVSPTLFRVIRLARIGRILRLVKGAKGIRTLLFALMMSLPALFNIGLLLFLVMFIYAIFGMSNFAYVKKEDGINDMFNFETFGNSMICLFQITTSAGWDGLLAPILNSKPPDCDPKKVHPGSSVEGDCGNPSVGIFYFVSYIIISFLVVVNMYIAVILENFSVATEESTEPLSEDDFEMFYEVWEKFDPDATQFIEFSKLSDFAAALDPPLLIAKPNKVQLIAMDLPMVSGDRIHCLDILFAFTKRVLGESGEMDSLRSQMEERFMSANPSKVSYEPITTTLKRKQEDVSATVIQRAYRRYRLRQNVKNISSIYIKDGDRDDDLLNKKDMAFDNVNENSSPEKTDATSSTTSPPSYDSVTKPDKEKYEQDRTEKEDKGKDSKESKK

Structure (SMILES) | IC50
O=C(N[C@H]1C[C@H](O)C1)c1ccc2cc(Oc3ccc(C(F)(F)F)cn3)ccc2n1 [Example 302, N-(trans-3-hydroxycyclobutyl)-6-{[5-(trifluoromethyl)pyridin-2-yl]oxy}quinoline-2-carboxamide] | 3.49 µM

Same assay, conditions: HEK293 cells stably expressing recombinant human Nav1.7; veratridine + scorpion venom depolarization; read-out: FRET-Membrane Potential Nav1.7 IC50

Structure (SMILES) | IC50
CC(C)OC(=O)N1CCN(C(=O)c2ccc3cc(Oc4ccc(C(F)(F)F)cn4)ccc3n2)CC1 [Example 277, isopropyl 4-[(6-{[5-(trifluoromethyl)pyridin-2-yl]oxy}quinolin-2-yl)carbonyl]piperazine-1-carboxylate] | 3.09 µM
O=C(c1ccc2cc(Oc3ccc(C(F)(F)F)cn3)ccc2n1)N1CCC12CNC2 [Example 279, 1,6-diazaspiro[3.3]hept-1-yl(6-{[5-(trifluoromethyl)pyridin-2-yl]oxy}quinolin-2-yl)methanone] | 5.68 µM
O=C(c1ccc2cc(Oc3ccc(C(F)(F)F)cn3)ccc2n1)N1C[C@@H]2CCN[C@@H]2C1 [Example 280, (3 aS,6aS)-hexahydropyrrolo[3,4-b]pyrrol-5(1H)-yl(6-{[5-(trifluoromethyl)pyridin-2-yl]oxy}quinolin-2-yl)methanone] | 0.605 µM
O=C(NN1CCOCC1)c1ccc2cc(Oc3ccc(C(F)(F)F)cn3)ccc2n1 [Example 281, N-(morpholin-4-yl)-6-{[5-(trifluoromethyl)pyridin-2-yl]oxy}quinoline-2-carboxamide] | 1.28 µM
O=C(c1ccc2cc(Oc3ccc(C(F)(F)F)cn3)ccc2n1)N1CC[C@@H](O)C1 [Example 282, [(3R)-3-hydroxypyrrolidin-1-yl](6-{[5-(trifluoromethyl)pyridin-2-yl]oxy}quinolin-2-yl)methanone] | 8.52 µM
O=C(c1ccc2cc(Oc3ccc(C(F)(F)F)cn3)ccc2n1)N1CC[C@H](O)C1 [Example 283, [(3S)-3-hydroxypyrrolidin-1-yl](6-{[5-(trifluoromethyl)pyridin-2-yl]oxy}quinolin-2-yl)methanone] | 10.9 µM
O=C(c1ccc2cc(Oc3ccc(C(F)(F)F)cn3)ccc2n1)N1CCCC(O)CC1 (centres unmarked) [Example 284, (4-hydroxyazepan-1-yl)(6-{[5-(trifluoromethyl)pyridin-2-yl]oxy}quinolin-2-yl)methanone] | 8.59 µM
CC1(CN2CCN(C(=O)c3ccc4cc(Oc5ccc(C(F)(F)F)cn5)ccc4n3)CC2)COC1 [Example 286, {4-[(3-methyloxetan-3-yl)methyl]piperazin-1-yl}(6-{[5-(trifluoromethyl)pyridin-2-yl]oxy}quinolin-2-yl)methanone] | 11.4 µM
CS(=O)(=O)C1CCN(C(=O)c2ccc3cc(Oc4ccc(C(F)(F)F)cn4)ccc3n2)C1 (centres unmarked) [Example 287, [3-(methylsulfonyl)pyrrolidin-1-yl](6-{[5-(trifluoromethyl)pyridin-2-yl]oxy}quinolin-2-yl)methanone] | 2.81 µM
O=C(c1ccc2cc(Oc3ccc(C(F)(F)F)cn3)ccc2n1)N1CCN2C(=O)CCC2C1 (centres unmarked) [Example 288, 2-[(6-{[5-(trifluoromethyl)pyridin-2-yl]oxy}quinolin-2-yl)carbonyl]hexahydropyrrolo[1,2-a]pyrazin-6(2H)-one] | 7.88 µM
CCOC(=O)N1CCN(C(=O)c2ccc3cc(Oc4ccc(C(F)(F)F)cn4)ccc3n2)CC1 [Example 289, ethyl 4-[(6-{[5-(trifluoromethyl)pyridin-2-yl]oxy}quinolin-2-yl)carbonyl]piperazine-1-carboxylate] | 3.91 µM
O=C(c1ccc2cc(Oc3ccc(C(F)(F)F)cn3)ccc2n1)N1CCN(C(=O)C2CC2)CC1 [Example 290, cyclopropyl{4-[(6-{[5-(trifluoromethyl)pyridin-2-yl]oxy}quinolin-2-yl)carbonyl]piperazin-1-yl}methanone] | 9.86 µM
O=C(c1ccc2cc(Oc3ccc(C(F)(F)F)cn3)ccc2n1)N1CCN(C2CCCCC2)CC1 [Example 291, (4-cyclohexylpiperazin-1-yl)(6-{[5-(trifluoromethyl)pyridin-2-yl]oxy}quinolin-2-yl)methanone] | 13.7 µM
O=C(c1ccc2cc(Oc3ccc(C(F)(F)F)cn3)ccc2n1)N1CC(O)C(F)C1 (centres unmarked) [Example 292, (3-fluoro-4-hydroxypyrrolidin-1-yl)(6-{[5-(trifluoromethyl)pyridin-2-yl]oxy}quinolin-2-yl)methanone] | 3.26 µM
CC(C)COC(=O)N1CCN(C(=O)c2ccc3cc(Oc4ccc(C(F)(F)F)cn4)ccc3n2)CC1 [Example 293, isobutyl 4-[(6-{[5-(trifluoromethyl)pyridin-2-yl]oxy}quinolin-2-yl)carbonyl]piperazine-1-carboxylate] | 3.32 µM
CCN1CCN(C(=O)c2ccc3cc(Oc4ccc(C(F)(F)F)cn4)ccc3n2)CC1 [Example 294, (4-ethylpiperazin-1-yl)(6-{[5-(trifluoromethyl)pyridin-2-yl]oxy}quinolin-2-yl)methanone] | 1.4 µM
O=C(c1ccc2cc(Oc3ccc(C(F)(F)F)cn3)ccc2n1)N1CCCCC1 [Example 297, piperidin-1-yl(6-{[5-(trifluoromethyl)pyridin-2-yl]oxy}quinolin-2-yl)methanone] | 7.99 µM
O=C(c1ccc2cc(Oc3ccc(C(F)(F)F)cn3)ccc2n1)N1CCN(CC(F)F)CC1 [Example 298, [4-(2,2-difluoroethyl)piperazin-1-yl](6-{[5-(trifluoromethyl)pyridin-2-yl]oxy}quinolin-2-yl)methanone] | 12.3 µM
O=C(c1ccc2cc(Oc3ccc(C(F)(F)F)cn3)ccc2n1)N1CCN(C(=O)N2CCOCC2)CC1 [Example 299, morpholin-4-yl{4-[(6-{[5-(trifluoromethyl)pyridin-2-yl]oxy}quinolin-2-yl)carbonyl]piperazin-1-yl}methanone] | > 20 µM
O=C(c1ccc2cc(Oc3ccc(C(F)(F)F)cn3)ccc2n1)N1C[C@H](O)C[C@H]1CO [Example 300, [(2S,4R)-4-hydroxy-2-(hydroxymethyl)pyrrolidin-1-yl](6-{[5-(trifluoromethyl)pyridin-2-yl]oxy}quinolin-2-yl)methanone] | > 20 µM
O=C(c1ccc2cc(Oc3ccc(C(F)(F)F)cn3)ccc2n1)N1CC[C@H](O)[C@H]1CO [Example 304, [(2R,3S)-3-hydroxy-2-(hydroxymethyl)pyrrolidin-1-yl](6-{[5-(trifluoromethyl)pyridin-2-yl]oxy}quinolin-2-yl)methanone] | > 20 µM
O=C(c1ccc2cc(Oc3ccc(C(F)(F)F)cn3)ccc2n1)N1C[C@H](CO)C[C@H](CO)C1 [Example 307, [cis-3,5-bis(hydroxymethyl)piperidin-1-yl](6-{[5-(trifluoromethyl)pyridin-2-yl]oxy}quinolin-2-yl)methanone] | 14.6 µM
O=C(c1ccc2cc(Oc3ccc(C(F)(F)F)cn3)ccc2n1)N1CCN(Cc2ccccn2)CC1 [Example 308, [4-(pyridin-2-ylmethyl)piperazin-1-yl](6-{[5-(trifluoromethyl)pyridin-2-yl]oxy}quinolin-2-yl)methanone] | 3.07 µM
CC(C)(C)CC(=O)N1CCN(C(=O)c2ccc3cc(Oc4ccc(C(F)(F)F)cn4)ccc3n2)CC1 [Example 309, 3,3-dimethyl-1-{4-[(6-{[5-(trifluoromethyl)pyridin-2-yl]oxy}quinolin-2-yl)carbonyl]piperazin-1-yl}butan-1-one] | 3.57 µM
N[C@@H]1CCN(C(=O)c2ccc3cc(Oc4ccc(C(F)(F)F)cn4)ccc3n2)C1 [Example 310, [(3R)-3-aminopyrrolidin-1-yl](6-{[5-(trifluoromethyl)pyridin-2-yl]oxy}quinolin-2-yl)methanone] | 0.665 µM
O=C(c1ccc2cc(Oc3ccc(C(F)(F)F)cn3)ccc2n1)N1CCCC(F)(F)C1 [Example 312, (3,3-difluoropiperidin-1-yl)(6-{[5-(trifluoromethyl)pyridin-2-yl]oxy}quinolin-2-yl)methanone] | 6.93 µM
O=C(c1ccc2cc(Oc3ccc(C(F)(F)F)cn3)ccc2n1)N1CCC[C@@]12CC[C@H](O)C2 [Example 313, [(5S,7S)-7-hydroxy-1-azaspiro[4.4]non-1-yl](6-{[5-(trifluoromethyl)pyridin-2-yl]oxy}quinolin-2-yl)methanone] | 14 µM
O=C(c1ccc2cc(Oc3ccc(C(F)(F)F)cn3)ccc2n1)N1CCN(Cc2cocn2)CC1 [Example 315, [4-(1,3-oxazol-4-ylmethyl)piperazin-1-yl](6-{[5-(trifluoromethyl)pyridin-2-yl]oxy}quinolin-2-yl)methanone] | 6.12 µM

Same assay, conditions: read-out: FRET-Membrane Potential Nav1.7 IC50

Structure (SMILES) | IC50
O=C(c1ccc2cc(Oc3ccc(C(F)(F)F)cn3)ccc2n1)N1C[C@@H]2CN[C@@H]2C1 [Example 278, (1S,5S)-3,6-diazabicyclo[3.2.0]hept-3-yl(6-{[5-(trifluoromethyl)pyridin-2-yl]oxy}quinolin-2-yl)methanone] | 3.72 µM
O=C(NC1CS(=O)(=O)CC1O)c1ccc2cc(Oc3ccc(C(F)(F)F)cn3)ccc2n1 (centres unmarked) [Example 285, N-(4-hydroxy-1,1-dioxidotetrahydrothiophen-3-yl)-6-{[5-(trifluoromethyl)pyridin-2-yl]oxy}quinoline-2-carboxamide] | 0.774 µM
O=C(c1ccc2cc(Oc3ncc(C(F)(F)F)cc3Br)ccc2n1)N1CCNCC1 [Example 295, (6-{[3-bromo-5-(trifluoromethyl)pyridin-2-yl]oxy}quinolin-2-yl)(piperazin-1-yl)methanone] | 3.2 µM
O=C(c1ccc2cc(Oc3ccc(C(F)(F)F)cn3)ccc2n1)N1CCOCC1 [Example 296, morpholin-4-yl(6-{[5-(trifluoromethyl)pyridin-2-yl]oxy}quinolin-2-yl)methanone] | 12.4 µM
O=C(c1ccc2cc(Oc3ccc(C(F)(F)F)cn3)ccc2n1)N1CCN(CCC(F)(F)F)CC1 [Example 311, (6-{[5-(trifluoromethyl)pyridin-2-yl]oxy}quinolin-2-yl)[4-(3,3,3-trifluoropropyl)piperazin-1-yl]methanone] | 3.11 µM
O=C(c1ccc2cc(Oc3ccc(C(F)(F)F)cn3)ccc2n1)N1CCC(N2CCC2)C1 (centres unmarked) [Example 314, [3-(azetidin-1-yl)pyrrolidin-1-yl](6-{[5-(trifluoromethyl)pyridin-2-yl]oxy}quinolin-2-yl)methanone] | 0.218 µM

From US9452986B2, “6-heteroaryloxy- or 6-aryloxy-quinoline-2-carboxamides and method of use” (AbbVie Inc., priority 2014, dated 2016)
